Source: patent publication US10695334B2, “Heteroaromatic carboxamide derivatives as plasma kallikrein inhibitors” (Boehringer Ingelheim International GmbH, priority 2018, dated 2020)
Counter-ions that a name gives are not always drawn.

Biological target: Human PKK (Homo sapiens (Human), UniProt P03952)
Assay: Inhibition of PKK, endpoint assay (human PKK)
Format: biochemical
Settings: substrate H-Pro-Phe-Arg-AMC, 1 h room temperature
Description: Subsequently, PPACK II (Calbiochem) was added as a stop solution to achieve a final concentration of 1 μM and fluorescence was measured using an Envision Reader (PerkinElmer) with the wavelength excitation setting of 355 nm and the wavelength emission setting of 460 nm.

Human PKK, sequence (P03952 391-638): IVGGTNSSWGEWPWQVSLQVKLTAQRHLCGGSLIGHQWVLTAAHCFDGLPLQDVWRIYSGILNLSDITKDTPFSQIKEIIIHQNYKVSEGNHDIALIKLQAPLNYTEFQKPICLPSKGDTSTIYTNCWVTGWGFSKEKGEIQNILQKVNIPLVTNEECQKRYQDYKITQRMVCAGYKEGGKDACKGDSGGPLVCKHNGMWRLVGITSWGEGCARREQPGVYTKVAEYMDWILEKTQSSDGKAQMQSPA
Human PKK, sequence (P03952 20-390 partner): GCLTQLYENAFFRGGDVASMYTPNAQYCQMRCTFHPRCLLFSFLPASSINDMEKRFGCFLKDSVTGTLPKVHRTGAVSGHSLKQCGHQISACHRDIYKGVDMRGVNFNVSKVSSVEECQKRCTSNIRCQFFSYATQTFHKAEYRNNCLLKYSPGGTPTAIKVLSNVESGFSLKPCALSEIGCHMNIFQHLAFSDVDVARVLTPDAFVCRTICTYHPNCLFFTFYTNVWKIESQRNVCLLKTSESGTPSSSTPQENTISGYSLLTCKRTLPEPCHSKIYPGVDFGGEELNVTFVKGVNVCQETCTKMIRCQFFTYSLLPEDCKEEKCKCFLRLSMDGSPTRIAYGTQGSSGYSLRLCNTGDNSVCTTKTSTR

SMILES	IC50 [nM]
Cc1nc(N2CC(n3cccn3)C2)ccc1Cn1cc(C(=O)N[C@@H]2CCc3c2n[nH]c3C)cn1 [Example 58, N-[(6R)-3-Methyl-2H,4H,5H,6H-cyclopenta[c]pyrazol-6-yl]-1-({2-methyl-6[3-(1H-pyrazol-1-yl)azetidin-1-yl]pyridin-3-yl}methyl)-1H-pyrazole-4-carboxamide]	20
Cc1nc(N2C[C@@H]3[C@@H](O)[C@@H]3C2)ccc1Cn1cc(C(=O)N[C@@H]2CCc3c2n[nH]c3C)cn1 [Example 59, 1-({6-[(1R,5S,6R)-6-Hydroxy-3-azabicyclo[3.1.0]hexan-3-yl]-2-methylpyridin-3-yl}methyl)-N-[(6R)-3-methyl-2H,4H,5H,6H-cyclopenta[c]pyrazol-6-yl]-1H-pyrazole-4-carboxamide]	17
Cc1nc(N2CCC(C(F)(F)F)C2)ccc1Cn1cc(C(=O)N[C@@H]2CCc3c2n[nH]c3C)cn1 (stereo partly drawn) [Example 60, N-[(6R)-3-Methyl-2H,4H,5H,6H-cyclopenta[c]pyrazol-6-yl]-1-({2-methyl-6-[3-(trifluoromethyl)pyrrolidin-1-yl]pyridin-3-yl}methyl)-1H-pyrazole-4-carboxamide]	7
Cc1nc(N2CC(C)C2)ccc1Cn1cc(C(=O)N[C@@H]2CCc3c2n[nH]c3C)cn1 [Example 61, N-[(6R)-3-Methyl-2H,4H,5H,6H-cyclopenta[c]pyrazol-6-yl]-1-{[2-methyl-6-(3-methylazetidin-1-yl)pyridin-3-yl]methyl}-1H-pyrazole-4-carboxamide]	5
Cc1nc(N2CC3CCCC3C2)ccc1Cn1cc(C(=O)N[C@@H]2CCc3c2n[nH]c3C)cn1 (stereo partly drawn) [Example 62, N-[(6R)-3-Methyl-2H,4H,5H,6H-cyclopenta[c]pyrazol-6-yl]-1-[(2-methyl-6-{octahydrocyclopenta[c]pyrrol-2-yl}pyridin-3-yl)methyl]-1H-pyrazole-4-carboxamide]	7
Cc1nc(N2CC3(CCOCC3)C2)ccc1Cn1cc(C(=O)N[C@@H]2CCc3c2n[nH]c3C)cn1 [Example 63, N-[(6R)-3-Methyl-2H,4H,5H,6H-cyclopenta[c]pyrazol-6-yl]-1-[(2-methyl-6-{7-oxa-2-azaspiro[3.5]nonan-2-yl]pyridin-3-yl)methyl]-1H-pyrazole-4-carboxamide]	85
Cc1nc(N2CC3CC(C2)O3)ccc1Cn1cc(C(=O)N[C@@H]2CCc3c2n[nH]c3C)cn1 [Example 64, N-[(6R)-3-Methyl-2H,4H,5H,6H-cyclopenta[c]pyrazol-6-yl]-1-[(2-methyl-6-{6-oxa-3-azabicyclo[3.1.1]heptan-3-yl}pyridin-3-yl)methyl]-1H-pyrazole-4-carboxamide]	32
Cc1nc(N2CCCCCC2)ccc1Cn1cc(C(=O)N[C@@H]2CCc3c2n[nH]c3C)cn1 [Example 65, 1-{[6-(Azepan-1-yl)-2-methylpyridin-3-yl]methyl}-N-[(6R)-3-methyl-2H,4H,5H,6H-cyclopenta[c]pyrazol-6-yl]-1H-pyrazole-4-carboxamide]	10
Cc1nc(N2CCC3C(CC2)C3(F)F)ccc1Cn1cc(C(=O)N[C@@H]2CCc3c2n[nH]c3C)cn1 (stereo partly drawn) [Example 66, 1-[(6-{8,8-Difluoro-4-azabicyclo[5.1.0]octan-4-yl]-2-methylpyridin-3-yl)methyl]-N-[(6R)-3-methyl-2H,4H,5H,6H-cyclopenta[c]pyrazol-6-yl]-1H-pyrazole-4-carboxamide]	51
Cc1nc(N2CC3CCC3C2)ccc1Cn1cc(C(=O)N[C@@H]2CCc3c2n[nH]c3C)cn1 (stereo partly drawn) [Example 68, 1-[(6-{3-Azabicyclo[3.2.0]heptan-3-yl}-2-methylpyridin-3-yl)methyl]-N-[(6R)-3-methyl-2H,4H,5H,6H-cyclopenta[c]pyrazol-6-yl]-1H-pyrazole-4-carboxamide]	4
Cc1nc(N2CC(C(F)(F)F)C2)ccc1Cn1cc(C(=O)N[C@@H]2CCc3c2n[nH]c3C)cn1 [Example 69, N-[(6R)-3-Methyl-2H,4H,5H,6H-cyclopenta[c]pyrazol-6-yl]-1-({2-methyl-6-[3-(trifluoromethyl)azetidin-1-yl]pyridin-3-yl}methyl)-1H-pyrazole-4-carboxamide]	17
Cc1nc(N2CC(C(C)C)C2)ccc1Cn1cc(C(=O)N[C@@H]2CCc3c2n[nH]c3C)cn1 [Example 70, N-[(6R)-3-Methyl-2H,4H,5H,6H-cyclopenta[c]pyrazol-6-yl]-1-({2-methyl-6-[3-(propan-2-yl)azetidin-1-yl]pyridin-3-yl}lmethyl)-1H-pyrazole-4-carboxamide]	13
Cc1nc(N2C[C@H]3COC[C@H]3C2)ccc1Cn1cc(C(=O)N[C@@H]2CCc3c2n[nH]c3C)cn1 [Example 72, 1-({6-[(3aR,6aS)-Hexahydro-1H-furo[3,4-c]pyrrol-5-yl]-2-methylpyridin-3-yl}methyl)-N-[(6R)-3-methyl-2H,4H,5H,6H-cyclopenta[c]pyrazol-6-yl]-1H-pyrazole-4-carboxamide]	36
Cc1nc(N2CCC3(CCOC3)C2)ccc1Cn1cc(C(=O)N[C@@H]2CCc3c2n[nH]c3C)cn1 (stereo partly drawn) [Example 73, N-[(6R)-3-Methyl-2H,4H,5H,6H-cyclopenta[c]pyrazol-6-yl]-1-[(2-methyl-6-{2-oxa-7-azaspiro[4.4]nonan-7-yl}pyridin-3-yl)methyl]-1H-pyrazole-4-carboxamide]	17
Cc1nc(N2CC(F)(C(F)(F)F)C2)ccc1Cn1cc(C(=O)N[C@@H]2CCc3c2n[nH]c3C)cn1 [Example 74, 1-({6-[3-Fluoro-3-(trifluoromethyl)azetidin-1-yl]-2-methylpyridin-3-yl}methyl)-N-[(6R)-3-methyl-2H,4H,5H,6H-cyclopenta[c]pyrazol-6-yl]-1H-pyrazole-4-carboxamide]	38
Cc1nc(N2C[C@@H]3CC(F)(F)C[C@@H]3C2)ccc1Cn1cc(C(=O)N[C@@H]2CCc3c2n[nH]c3C)cn1 [Example 75, 1-({6-[(3aR,6aS)-5,5-Difluoro-octahydrocyclopenta[c]pyrrol-2-yl]-2-methylpyridin-3-yl}-methyl)-N-[(6R)-3-methyl-2H,4H,5H,6H-cyclopenta[c]pyrazol-6-yl]-1H-pyrazole-4-carboxamide]	19
Cc1nc(N2CC3(CC(O)C3)C2)ccc1Cn1cc(C(=O)N[C@@H]2CCc3c2n[nH]c3C)cn1 [Example 76, 1-[(6-{6-Hydroxy-2-azaspiro[3.3]heptan-2-yl}-2-methylpyridin-3-yl)methyl]-N-[(6R)-3-methyl-2H,4H,5H,6H-cyclopenta[c]pyrazol-6-yl]-1H-pyrazole-4-carboxamide]	572
Cc1nc(N2CCC3(C2)CC3(F)F)ccc1Cn1cc(C(=O)N[C@@H]2CCc3c2n[nH]c3C)cn1 (stereo partly drawn) [Example 78, 1-[(6-{1,1-Difluoro-5-azaspiro[2.4]heptan-5-yl}-2-methylpyridin-3-yl)methyl]-N-[(6R)-3-methyl-2H,4H,5H,6H-cyclopenta[c]pyrazol-6-yl]-1H-pyrazole-4-carboxamide]	9
Cc1nc(N2CC3C(C2)C3(C)C)ccc1Cn1cc(C(=O)N[C@@H]2CCc3c2n[nH]c3C)cn1 (stereo partly drawn) [Example 80, 1-[(6-{6,6-Dimethyl-3-azabicyclo[3.1.0]hexan-3-yl]-2-methylpyridin-3-yl)methyl]-N-[(6R)-3-methyl-2H,4H,5H,6H-cyclopenta[c]pyrazol-6-yl]-1H-pyrazole-4-carboxamide]	9
Cc1nc(N2CC(c3ccc(F)cc3)C2)ccc1Cn1cc(C(=O)N[C@@H]2CCc3c2n[nH]c3C)cn1 [Example 81, 1-({6-[3-(4-Fluorophenyl)azetidin-1-yl]-2-methylpyridin-3-yl}methyl)-N-[(6R)-3-methyl-2H,4H,5H,6H-cyclopenta[c]pyrazol-6-yl]-1H-pyrazole-4-carboxamide]	161
Cc1nc(N2CC[C@](C)(O)C2)ccc1Cn1cc(C(=O)N[C@@H]2CCc3c2n[nH]c3C)cn1 [Example 83, 1-({6-[(3S)-3-Hydroxy-3-methylpyrrolidin-1-yl]-2-methylpyridin-3-yl}methyl)-N-[(6R)-3-methyl-2H,4H,5H,6H-cyclopenta[c]pyrazol-6-yl]-1H-pyrazole-4-carboxamide]	41
Cc1nc(N2CC3C(C2)C3(F)F)ncc1Cn1cc(C(=O)N[C@@H]2CCc3c2n[nH]c3C)cn1 (stereo partly drawn) [Example 84, 1-[(2-{6,6-Difluoro-3-azabicyclo[3.1.0]hexan-3-yl}-4-methylpyrimidin-5-yl)methyl]-N-[(6R)-3-methyl-2H,4H,5H,6H-cyclopenta[c]pyrazol-6-yl]-1H-pyrazole-4-carboxamide, TFA salt]	2
Cc1nc(N2CC3C(C2)C3(F)F)ncc1Cn1cc(C(=O)N[C@@H]2CCc3c(C)n[nH]c32)nn1 (stereo partly drawn) [Example 85, 1-[(2-{6,6-Difluoro-3-azabicyclo[3.1.0]hexan-3-yl}-4-methylpyrimidin-5-yl)methyl]-N-[(6R)-3-methyl-1H,4H,5H,6H-cyclopenta[c]pyrazol-6-yl]-1H-1,2,3-triazole-4-carboxamide]	4
Cc1nc(N2CC3CC3C2)ncc1Cn1cnc(C(=O)N[C@@H]2CCc3c2n[nH]c3C)c1 (stereo partly drawn) [Example 91, 1-[(2-{3-Azabicyclo[3.1.0]hexan-3-yl}-4-methyl-pyrimidin-5-yl)methyl]-N-[(6R)-3-methyl-2H,4H,5H,6H-cyclopenta[c]pyrazol-6-yl]-1H-imidazole-4-carboxamide]	3
Cc1nc(N2C[C@@H]3[C@@H](CF)[C@@H]3C2)ccc1Cn1cc(C(=O)N[C@@H]2CCc3c2n[nH]c3C)cn1 [Example 95, 1-({6-[(1R,5S,6R)-6-(Fluoromethyl)-3-azabicyclo[3.1.0]hexan-3-yl]-2-methylpyridin-3-yl}methyl)-N-[(6R)-3-methyl-2H,4H,5H,6H-cyclopenta[c]pyrazol-6-yl]-1H-pyrazole-4-carboxamide]	4
Cc1nc(N2CC3CC3C2)ccc1Cn1cc(C(=O)N[C@@H]2CCc3c2n[nH]c3C)c(C(C)(C)O)n1 (stereo partly drawn) [Example 106, 1-[(6-{3-Azabicyclo[3.1.0]hexan-3-yl}-2-methylpyridin-3-yl)methyl]-3-(2-hydroxypropan-2-yl)-N-[(6R)-3-methy-2H,4H,5H,6H-cyclopenta[c]pyrazol-6-yl]-1H-pyrazole-4-carboxamide]	0.9
